Each block holds one compound with its values, some of them ahead of it.
Tests used:
CAPAN-1 = experiment: Antiproliferative activity against human CAPAN-1 cells assessed as reduction in cell growth; format: functional, cell-based
[1] = molecular target: T1, Poly [ADP-ribose] polymerase 1 (Homo sapiens, UniProt P09874); experiment: Inhibition of PARP1 (unknown origin)
[2] = Antiproliferative activity against human MCF10A cells assessed as inhibition of cell growth incubated for 72 hrs by alamar blue assay; format: functional, cell-based; settings: MCF10AT1, 72 h
[3] = molecular target: T1, Poly [ADP-ribose] polymerase 1; experiment: Inhibition of human recombinant PARP1 at 0.1 uM relative to control
[4] = molecular target: T1, Poly [ADP-ribose] polymerase 1; experiment: Inhibition of human recombinant PARP1 at 100 uM relative to control
[5] = molecular target: T1, Poly [ADP-ribose] polymerase 1; experiment: Inhibition of human recombinant PARP1 at 10 uM relative to control
[6] = molecular target: T1, Poly [ADP-ribose] polymerase 1; experiment: Inhibition of human recombinant PARP1 at 1 uM relative to control
[7] = molecular target: T1, Poly [ADP-ribose] polymerase 1; experiment: Inhibition of human recombinant PARP1 at 0.01 uM relative to control
LOX IMVI = experiment: Growth inhibition of human LOX IMVI cells; format: functional
Jurkat = experiment: Antiproliferative activity against human Jurkat cells assessed as reduction in cell viability incubated for 72 hrs by MTT assay; format: functional, cell-based
MCF7 [8] = experiment: Antiproliferative activity against human MCF7 cells assessed as reduction in cell viability at 10 uM incubated for […] by MTT assay; format: functional
MCF7 [9] = experiment: Cytotoxicity against human MCF7 cells harbouring BRCA1 assessed as inhibition of cell growth measured after 72 hrs by MTT assay; format: functional, cell-based; settings: MCF7, 72 h
MCF7 [10] = experiment: Antiproliferative activity against human MCF7 cells assessed as reduction in cell viability at 10 uM incubated for 48 hrs by MTT assay; format: functional
MDA-MB-468 = experiment: Growth inhibition of human MDA-MB-468 cells; format: functional
MCF7 [11] = experiment: Antiproliferative activity against human MCF7 cells assessed as reduction in cell viability incubated for 72 hrs by MTT assay; format: functional, cell-based; settings: MCF7, 72 h
NCI-H226 = experiment: Growth inhibition of human NCI-H226 cells; format: functional
SK-OV-3 [12] = experiment: Antiproliferative activity against human SK-OV-3 cells assessed as reduction in cell viability incubated for 72 hrs by MTT assay; format: functional, cell-based; settings: SK-OV-3, 72 h
HCT-116 [13] = experiment: Growth inhibition of human HCT-116 cells; format: functional
IGROV-1 = experiment: Growth inhibition of human IGROV-1 cells; format: functional
SNB-75 = experiment: Growth inhibition of human SNB-75 cells; format: functional
[14] = Cytotoxicity against mouse BALB/3T3 cells assessed as reduction in cell viability incubated for 72 hrs by MTT assay; format: toxicity, cell-based
HCT-116 [15] = experiment: Antiproliferative activity against human HCT-116 cells assessed as reduction in cell viability incubated for 72 hrs by MTT assay; format: functional, cell-based; settings: HCT-116, 72 h
[16] = molecular target: T2, Poly [ADP-ribose] polymerase 2 (Homo sapiens, UniProt Q9UGN5); experiment: Inhibition of PARP2 (unknown origin)
RPMI-8226 = experiment: Growth inhibition of human RPMI-8226 cells; format: functional
A549 = experiment: Antiproliferative activity against human A549 cells assessed as reduction in cell viability incubated for 72 hrs by MTT assay; format: functional, cell-based; settings: A549, 72 h
MCF7 [17] = experiment: Antiproliferative activity against human MCF7 cells assessed as reduction in cell viability at 10 uM incubated for 24 hrs by MTT assay; format: functional
KB 3-1 = experiment: Antiproliferative activity against human KB 3-1 cells assessed as reduction in cell viability incubated for 72 hrs by MTT assay; format: functional, cell-based; settings: KB 3-1, 72 h
[18] = Cytotoxicity against African green monkey Vero cells; format: toxicity, cell-based, Chlorocebus sabaeus
Caco-2 = experiment: Cytotoxicity against human Caco-2 cells assessed as inhibition of cell growth incubated for 72 hrs by CCK-8 assay; format: functional, cell-based; settings: Caco-2, 72 h
MCF7 [19] = experiment: Anticancer activity against human MCF7 cells assessed as reduction in cell viability; format: functional, cell-based
MDA-MB-231 [20] = experiment: Cytotoxicity against human MDA-MB-231 cells assessed as reduction in cell growth incubated for 72 hrs by alamar blue reagent based analysis; format: functional; settings: MDA-MB-231, 72 h
MCF7 [21] = experiment: Cytotoxicity against human MCF7 cells assessed as reduction in cell growth incubated for 72 hrs by alamar blue reagent based analysis; format: functional; settings: MCF7, 72 h
[22] = Cytotoxicity against human WI-38 cells assessed as reduction in cell viability incubated for 48 hrs by MTT assay; format: toxicity, cell-based
MDA-MB-436 [23] = experiment: Antiproliferative activity against human MDA-MB-436 cells; format: functional, cell-based
[24] = molecular target: T1, Poly [ADP-ribose] polymerase 1; experiment: Inhibition of human PARP1
HCT-116 [25] = experiment: Cytotoxicity against human HCT-116 cells assessed as reduction in cell growth incubated for 96 hrs by MTT assay; format: functional, cell-based; settings: HCT-116, 96 h
[26] = molecular target: T1, Poly [ADP-ribose] polymerase 1; experiment: Inhibition of PARP1 (unknown origin) at 10 uM relative to control
MCF7 [27] = experiment: Cytotoxicity against human MCF7 cells assessed as reduction in cell viability incubated for 24 hrs by MTS assay; format: functional, cell-based; settings: MCF7, 24 h
[28] = molecular target: T1, Poly [ADP-ribose] polymerase 1; experiment: Inhibition of PARP1 (unknown origin) using biotinylated NAD+ as substrate by luminescence assay
MDA-MB-231 [29] = experiment: Cytotoxicity against human MDA-MB-231 cells assessed as reduction in cell viability incubated for 24 hrs by MTS assay; format: functional, cell-based; settings: MDA-MB-231, 24 h
[30] = molecular target: T2, Poly [ADP-ribose] polymerase 2; experiment: Inhibition of PARP2 (unknown origin) using biotinylated NAD+ as substrate by luminescence assay
[31] = Microsomal stability in human liver microsomes assessed as half life measured for 48 hrs by LC-MS/MS analysis; format: ADME, Microsome
[32] = molecular target: T2, Poly [ADP-ribose] polymerase 2; experiment: Inhibition of PARP2 (unknown origin) at 10 uM relative to control
MDA-MB-436 [33] = experiment: Cytotoxicity against human MDA-MB-436 cells assessed as reduction in cell viability incubated for 24 hrs by MTS assay; format: functional, cell-based; settings: MDA-MB-436, 24 h
[34] = Microsomal stability in rat liver microsomes assessed as half life measured for 48 hrs by LC-MS/MS analysis; format: ADME, Microsome
MCF7 [35] = experiment: Antiproliferative activity against human MCF7 cells assessed as reduction in cell growth; format: functional, cell-based
SK-OV-3 [36] = experiment: Inhibition of colony formation in human SK-OV-3 cells at 10 uM by crystal violet staining assay; format: functional
SK-OV-3 [37] = experiment: Antiproliferative activity against human SK-OV-3 cells assessed as reduction in cell growth; format: functional, cell-based
HCT-116 [38] = experiment: Antiproliferative activity against human HCT-116 cells assessed as reduction in cell growth; format: functional, cell-based
MDA-MB-231 [39] = experiment: Antiproliferative activity against human MDA-MB-231 cells assessed as reduction in cell growth; format: functional, cell-based
A2780 = experiment: Antiproliferative activity against human A2780 cells assessed as reduction in cell growth; format: functional, cell-based
[40] = test system: Panel NCI-60 (60 carcinoma cell lines); experiment: Cytotoxicity against human Panel NCI-60 (60 carcinoma cell lines); format: functional, cell-based
[41] = molecular target: Protein mono-ADP-ribosyltransferase PARP3 (Homo sapiens, UniProt Q9Y6F1); experiment: Inhibition of PARP3 (unknown origin)
[42] = molecular target: T1, Poly [ADP-ribose] polymerase 1; experiment: Inhibition of human recombinant PARP1 expressed in Escherichia coli BL21(DE3)
MX1 = experiment: Antiproliferative activity against human MX1 cells assessed as cell growth inhibition; format: functional, cell-based
MCF7 [43] = experiment: Antiproliferative activity against human MCF7 cells assessed as cell growth inhibition; format: functional, cell-based

T1 sequence (P09874 whole entry): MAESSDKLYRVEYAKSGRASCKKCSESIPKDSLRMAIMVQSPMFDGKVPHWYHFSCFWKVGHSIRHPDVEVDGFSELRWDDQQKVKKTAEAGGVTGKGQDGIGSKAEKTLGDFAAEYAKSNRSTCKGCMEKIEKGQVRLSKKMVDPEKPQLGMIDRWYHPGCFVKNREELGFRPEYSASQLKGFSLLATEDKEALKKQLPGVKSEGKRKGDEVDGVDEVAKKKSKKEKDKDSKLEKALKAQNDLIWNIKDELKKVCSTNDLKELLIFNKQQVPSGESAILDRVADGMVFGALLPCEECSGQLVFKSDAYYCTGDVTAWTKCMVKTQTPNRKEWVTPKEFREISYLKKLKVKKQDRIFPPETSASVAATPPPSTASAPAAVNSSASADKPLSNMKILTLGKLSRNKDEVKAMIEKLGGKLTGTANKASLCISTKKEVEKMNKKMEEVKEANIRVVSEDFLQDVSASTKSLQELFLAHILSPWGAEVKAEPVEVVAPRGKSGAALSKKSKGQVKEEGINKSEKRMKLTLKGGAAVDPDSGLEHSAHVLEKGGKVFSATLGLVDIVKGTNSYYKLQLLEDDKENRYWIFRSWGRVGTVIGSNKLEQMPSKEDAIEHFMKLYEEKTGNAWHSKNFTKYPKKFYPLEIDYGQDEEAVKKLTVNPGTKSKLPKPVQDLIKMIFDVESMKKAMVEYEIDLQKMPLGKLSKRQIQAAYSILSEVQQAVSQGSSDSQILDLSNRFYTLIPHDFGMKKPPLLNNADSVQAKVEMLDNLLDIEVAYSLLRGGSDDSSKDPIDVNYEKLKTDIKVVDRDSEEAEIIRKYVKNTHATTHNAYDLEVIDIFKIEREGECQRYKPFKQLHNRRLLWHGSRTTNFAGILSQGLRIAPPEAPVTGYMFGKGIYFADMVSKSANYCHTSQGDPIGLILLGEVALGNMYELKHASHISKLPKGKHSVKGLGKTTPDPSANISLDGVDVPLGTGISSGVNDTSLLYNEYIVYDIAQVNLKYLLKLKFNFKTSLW
T2 sequence (Q9UGN5 whole entry): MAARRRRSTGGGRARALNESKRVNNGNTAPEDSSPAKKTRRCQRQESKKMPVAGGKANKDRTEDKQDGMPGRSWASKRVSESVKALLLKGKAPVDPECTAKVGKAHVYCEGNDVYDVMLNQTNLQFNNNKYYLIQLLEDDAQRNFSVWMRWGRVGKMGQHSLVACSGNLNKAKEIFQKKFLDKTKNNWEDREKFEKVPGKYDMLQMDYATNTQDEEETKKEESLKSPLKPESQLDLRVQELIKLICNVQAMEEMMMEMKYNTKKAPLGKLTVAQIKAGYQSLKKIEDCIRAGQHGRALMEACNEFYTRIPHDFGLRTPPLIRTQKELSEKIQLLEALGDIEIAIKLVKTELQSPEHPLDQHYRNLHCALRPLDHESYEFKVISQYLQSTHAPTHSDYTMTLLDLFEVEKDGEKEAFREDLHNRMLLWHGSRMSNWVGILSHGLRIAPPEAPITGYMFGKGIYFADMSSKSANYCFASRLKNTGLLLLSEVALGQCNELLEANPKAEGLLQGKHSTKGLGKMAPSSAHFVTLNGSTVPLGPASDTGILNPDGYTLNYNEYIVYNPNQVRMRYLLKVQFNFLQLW
Sequence of Protein mono-ADP-ribosyltransferase PARP3 (Q9Y6F1 whole entry): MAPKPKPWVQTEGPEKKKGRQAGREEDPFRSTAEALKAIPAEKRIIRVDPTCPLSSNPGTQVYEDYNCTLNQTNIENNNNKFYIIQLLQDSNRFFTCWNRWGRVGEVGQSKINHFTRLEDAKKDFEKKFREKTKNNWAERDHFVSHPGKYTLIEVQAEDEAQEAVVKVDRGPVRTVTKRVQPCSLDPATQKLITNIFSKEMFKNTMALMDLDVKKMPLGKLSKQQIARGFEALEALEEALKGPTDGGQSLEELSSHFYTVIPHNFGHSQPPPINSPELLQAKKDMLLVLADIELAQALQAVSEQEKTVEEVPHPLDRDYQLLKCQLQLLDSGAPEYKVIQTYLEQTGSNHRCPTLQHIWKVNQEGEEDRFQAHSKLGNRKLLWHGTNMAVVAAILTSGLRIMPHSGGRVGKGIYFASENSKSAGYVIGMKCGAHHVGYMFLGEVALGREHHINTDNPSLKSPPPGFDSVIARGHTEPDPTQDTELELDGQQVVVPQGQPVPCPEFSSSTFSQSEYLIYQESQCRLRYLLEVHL

IC50 [1]: 0.00324 µM
Structure (SMILES): O=C(NCCc1ccc(F)cc1)c1cc(Cc2n[nH]c(=O)c3ccccc23)ccc1F
IC50 (CAPAN-1): 7.5 µM

IC50 [16]: 4.3 µM
IC50 [1]: 22 µM
Structure (SMILES): O=C1N[C@H](C2CC2)[C@@H](C(=O)N2CCC(N3CCCCC3)CC2)c2ccc(F)cc21

IC50 (MDA-MB-436 [23]): 2.57 µM
IC50 [24]: 0.0044 µM
Structure (SMILES): Cc1cc(C)n(S(=O)(=O)c2ccc3[nH]c(=O)c(=O)[nH]c3c2)n1
IC50 at 48 h [22]: 81.7 µM

IC50 (MDA-MB-436 [23]): 8.9 µM
Structure (SMILES): O=C(c1cc(Cc2n[nH]c(=O)c3ccccc23)ccc1F)N1CCN(C(=O)C2CC2)CC1 [OLAPARIB]
IC50 (MDA-MB-231 [20]): 70.2 µM
IC50 (MCF7 [21]): 3.2 µM

IC50 [42]: 0.00865 µM
Structure (SMILES): NC(=O)c1cccc2[nH]c(-c3ccc(C(=O)NC4CCN(C(=O)c5ccc(Cl)o5)C4)cc3)nc12 (stereo not drawn)

The next lines start with the compound.

Structure (SMILES): COc1ccc(CSc2nccc(OCC(=O)N3CCN(c4cccc(Cl)c4Cl)CC3)n2)cc1
IC50 [2]: 18.2 µM
inhibition [3]: 2%
inhibition [4]: 82.1%
inhibition [5]: 53%
inhibition [6]: 20.6%
inhibition [7]: 1.3%

Structure (SMILES): CCOC(=O)c1ccc(NC(=O)CS/C(=C\C(=O)c2sc(Nc3ccccn3)nc2C)c2ccccc2F)cc1
GI50 (LOX IMVI): 0.312 µM
IC50 (Jurkat): 5.36 µM
Activity (MCF7 [8]): 90%
IC50 (MCF7 [9]): 0.7 µM
Activity (MCF7 [10]): 43%
GI50 (MDA-MB-468): 4.24 µM
IC50 (MCF7 [11]): 2.79 µM
GI50 (NCI-H226): 2.52 µM
IC50 (SK-OV-3 [12]): 7.87 µM
GI50 (HCT-116 [13]): 23 µM
GI50 (IGROV-1): 12.1 µM
GI50 (SNB-75): 3.58 µM
IC50 at 72 h [14]: 7.79 µM
IC50 (HCT-116 [15]): 6.11 µM
IC50 [16]: 0.72 µM
GI50 (RPMI-8226): 8.29 µM
IC50 (A549): 8.05 µM
IC50 [1]: 2.28 µM
Activity (MCF7 [17]): 19.9%
IC50 (KB 3-1): 7.63 µM

Structure (SMILES): CCOC(=O)CO/N=C(\N)c1ccccc1
IC50 [18]: 6.76 µM
IC50 (Caco-2): 0.43 µM
IC50 (MCF7 [19]): 0.8 µM

Structure (SMILES): COc1ccc(CSc2nccc(OCC(=O)N3CCN(c4ccc(C)cc4)CC3)n2)cc1
IC50 [2]: 46.9 µM
inhibition [3]: 15.6%
inhibition [4]: 85.8%
inhibition [5]: 70.3%
inhibition [6]: 29.8%
inhibition [7]: 0.5%

Structure (SMILES): COc1ccc(Cc2nnc(-c3cccc(-c4ccnc(F)c4C)c3)o2)cc1OC
IC50 (MDA-MB-231 [20]): 19.2 µM
IC50 (MCF7 [21]): 15.3 µM

Structure (SMILES): Nc1nc(S)nc2c1Oc1[nH]c(=O)[nH]c(=O)c1C2c1cccs1 (stereo not drawn)
IC50 (HCT-116 [25]): 9.31 µM

Structure (SMILES): NC(=O)c1cccc2[nH]c(C3CCN(C4CCC(F)(F)CC4)CC3)nc12
inhibition [26]: 47.9%
IC50 (MCF7 [27]): 60.8 µM
IC50 [28]: 0.0043 µM
IC50 (MDA-MB-231 [29]): 96.8 µM
IC50 [30]: 0.00158 µM
half-life [31]: 4.38 h
inhibition [32]: 90.8%
IC50 (MDA-MB-436 [33]): 28.3 µM
half-life [34]: > 16.7 h

Structure (SMILES): CCNC(=S)N/N=C\c1ccc(-c2nc3c(oc4ccccc43)c(=O)[nH]2)cc1
IC50 (MCF7 [35]): 38.1 µM
inhibition at 10 µM (SK-OV-3 [36]): 78.1%
IC50 (SK-OV-3 [37]): 4.98 µM
IC50 (HCT-116 [38]): 8.75 µM
IC50 (MDA-MB-231 [39]): 47.6 µM
IC50 (A2780): 24.8 µM

Structure (SMILES): CC(=O)c1nnn(-c2ccc(Br)cc2)c1C
IC50 [40]: 0.018 µM

Structure (SMILES): CCN(CC)CCC(=O)Nc1ccc(-c2nc3cc(Cl)ccc3o2)cc1
IC50 [41]: 0.057 µM

Structure (SMILES): O=C1NCC(c2ccc(-c3ccc(C(F)(F)F)cc3)cc2)Nc2ccccc21 (stereo not drawn)
IC50 (MX1): 24.6 µM
IC50 (MCF7 [43]): 37.9 µM

Source: ChEMBL document CHEMBL5550171, “Poly (ADP-ribose) polymerase (PARP) inhibitors as anticancer agents: An outlook on clinical progress, synthetic strategies, biological activity, and structure-activity relationship” (Eur J Med Chem, 2024)
